Experimental data as given in PubChem BioAssay AID248 (DTP/NCI, 2004).
Toxic doses and inconclusive results are not listed. Cut-off read from the data, not from the text of the source: active = T/C of 150% or more; inactive = T/C below 125%.

System: L1210 leukemia ip in BDF1 mice, survival T/C
Test: NCI In Vivo Anticancer Drug Screen. Data for tumor model L1210 Leukemia (intraperitoneal) in B6D2F1 (BDF1) mice
Conditions: endpoint: mean survival time, higher = longer survival
In short: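 Each compound was tested against a transplantable tumor grown in mice. The endpoint was survival, with treated animals benchmarked against vehicle controls as a simple ratio.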

[1] = dose: 100.0 mg/kg/injection, schedule: Q01DX009 (ip), vehicle: Klucel (hydroxypropylcellulose) (HPC)
[2] = dose: 200.0 mg/kg/injection, schedule: Q01DX009 (ip), vehicle: Klucel (hydroxypropylcellulose) (HPC)
[3] = dose: 400.0 mg/kg/injection, schedule: Q01DX009 (ip), vehicle: Klucel (hydroxypropylcellulose) (HPC)

Measured: T/C

Cc1cn(C2CC(OS(C)(=O)=O)C(COC(c3ccccc3)(c3ccccc3)c3ccccc3)O2)c(=O)[nH]c1=O (stereo not drawn)
inactive: dose: 100.0 mg/kg/injection, schedule: Q01DX005 (ip), vehicle: saline 104 % of control | dose: 200.0 mg/kg/injection, schedule: Q01DX005 (ip), vehicle: saline 96 % of control

COc1ccc(CCl)cc1C(=O)O
inactive: dose: 75.0 mg/kg/injection, schedule: Q01DX001 (ip), vehicle: saline 86 % of control | dose: 150.0 mg/kg/injection, schedule: Q01DX001 (ip), vehicle: saline 91 % of control

CCNS(=O)(=O)c1ccc(Cl)c([N+](=O)[O-])c1
inactive: dose: 100.0 mg/kg/injection, schedule: Q01DX001 (ip), vehicle: Klucel (hydroxypropylcellulose) (HPC) 101 % of control | dose: 200.0 mg/kg/injection, schedule: Q01DX001 (ip), vehicle: Klucel (hydroxypropylcellulose) (HPC) 102 % of control | dose: 400.0 mg/kg/injection, schedule: Q01DX001 (ip), vehicle: Klucel (hydroxypropylcellulose) (HPC) 107 % of control

CCCCCCCCCCCCCCCCCSc1ccc2ccccc2c1
inactive: [1] 97 % of control | [2] 100 % of control | [3] 95 % of control

O=[N+]([O-])c1ccc(/C=N/N(Cc2ccccc2)c2ccccc2)s1
inactive: dose: 100.0 mg/kg/injection, schedule: Q04DX003 (ip), vehicle: saline with Tween-80 87 % of control | dose: 400.0 mg/kg/injection, schedule: Q04DX003 (ip), vehicle: saline with Tween-80 89 % of control

O=C(/C=C/C(=O)Oc1c(Cl)c(Cl)c(Cl)c(Cl)c1Cl)Oc1c(Cl)c(Cl)c(Cl)c(Cl)c1Cl
inactive: [1] 100 % of control | dose: 100.0 mg/kg/injection, schedule: Q04DX003 (ip), vehicle: Klucel (hydroxypropylcellulose) (HPC) 111 % of control | [2] 104 % of control | dose: 200.0 mg/kg/injection, schedule: Q04DX003 (ip), vehicle: Klucel (hydroxypropylcellulose) (HPC) 93 % of control | [3] 100 % of control | dose: 400.0 mg/kg/injection, schedule: Q04DX003 (ip), vehicle: Klucel (hydroxypropylcellulose) (HPC) 105 % of control
